# According to BindingDB's records for doi:10.1021/jm060955d (Abbott Laboratories, 2006):
# What was measured:
# Assay in all cases: DPP Inhibition Assay
# Details in all cases: pH 7.5; 22 °C
# [1] = molecular target: Dipeptidyl peptidase 4 (Homo sapiens, UniProt P27487)
# Experimental: (§1) For each concentration of inhibitor or DMSO control, the steady state rates were used to fit a rectangular hyperbola, from which Km and Vmax values were determined by nonlinear regression analysis. The ratio of the Km/Vmax vs inhibitor concentration was plotted and the negative X-intercept, as calculated by linear regression, was the competitive Ki.
# [2] = molecular target: Dipeptidyl peptidase 8 (Homo sapiens, UniProt Q6V1X1)
# Sequence of Dipeptidyl peptidase 8 (Q6V1X1 whole entry): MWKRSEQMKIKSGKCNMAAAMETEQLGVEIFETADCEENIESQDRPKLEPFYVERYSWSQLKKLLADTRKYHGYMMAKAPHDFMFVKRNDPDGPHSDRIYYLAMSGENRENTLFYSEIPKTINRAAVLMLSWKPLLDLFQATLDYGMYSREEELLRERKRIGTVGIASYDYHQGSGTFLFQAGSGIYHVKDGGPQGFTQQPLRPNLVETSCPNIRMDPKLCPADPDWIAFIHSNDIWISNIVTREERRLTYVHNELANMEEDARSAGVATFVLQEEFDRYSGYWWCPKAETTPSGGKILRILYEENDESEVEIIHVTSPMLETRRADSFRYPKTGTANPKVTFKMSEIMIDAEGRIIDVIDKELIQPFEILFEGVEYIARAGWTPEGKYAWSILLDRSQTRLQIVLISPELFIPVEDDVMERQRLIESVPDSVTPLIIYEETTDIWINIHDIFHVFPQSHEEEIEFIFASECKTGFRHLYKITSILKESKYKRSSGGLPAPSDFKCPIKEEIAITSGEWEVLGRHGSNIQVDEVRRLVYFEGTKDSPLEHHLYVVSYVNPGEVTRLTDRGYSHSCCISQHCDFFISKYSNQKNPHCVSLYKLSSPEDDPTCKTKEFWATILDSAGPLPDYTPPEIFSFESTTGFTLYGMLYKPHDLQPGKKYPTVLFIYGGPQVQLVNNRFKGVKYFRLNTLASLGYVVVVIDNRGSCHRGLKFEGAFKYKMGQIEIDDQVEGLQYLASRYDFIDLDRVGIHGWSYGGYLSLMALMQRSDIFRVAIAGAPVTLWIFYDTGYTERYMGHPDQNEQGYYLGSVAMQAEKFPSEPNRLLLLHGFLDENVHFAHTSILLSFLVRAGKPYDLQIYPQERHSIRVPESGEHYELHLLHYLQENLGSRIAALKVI
# Experimental: as §1
# [3] = molecular target: Dipeptidyl peptidase 9 (Homo sapiens, UniProt Q86TI2)
# Sequence of Dipeptidyl peptidase 9 (Q86TI2 whole entry): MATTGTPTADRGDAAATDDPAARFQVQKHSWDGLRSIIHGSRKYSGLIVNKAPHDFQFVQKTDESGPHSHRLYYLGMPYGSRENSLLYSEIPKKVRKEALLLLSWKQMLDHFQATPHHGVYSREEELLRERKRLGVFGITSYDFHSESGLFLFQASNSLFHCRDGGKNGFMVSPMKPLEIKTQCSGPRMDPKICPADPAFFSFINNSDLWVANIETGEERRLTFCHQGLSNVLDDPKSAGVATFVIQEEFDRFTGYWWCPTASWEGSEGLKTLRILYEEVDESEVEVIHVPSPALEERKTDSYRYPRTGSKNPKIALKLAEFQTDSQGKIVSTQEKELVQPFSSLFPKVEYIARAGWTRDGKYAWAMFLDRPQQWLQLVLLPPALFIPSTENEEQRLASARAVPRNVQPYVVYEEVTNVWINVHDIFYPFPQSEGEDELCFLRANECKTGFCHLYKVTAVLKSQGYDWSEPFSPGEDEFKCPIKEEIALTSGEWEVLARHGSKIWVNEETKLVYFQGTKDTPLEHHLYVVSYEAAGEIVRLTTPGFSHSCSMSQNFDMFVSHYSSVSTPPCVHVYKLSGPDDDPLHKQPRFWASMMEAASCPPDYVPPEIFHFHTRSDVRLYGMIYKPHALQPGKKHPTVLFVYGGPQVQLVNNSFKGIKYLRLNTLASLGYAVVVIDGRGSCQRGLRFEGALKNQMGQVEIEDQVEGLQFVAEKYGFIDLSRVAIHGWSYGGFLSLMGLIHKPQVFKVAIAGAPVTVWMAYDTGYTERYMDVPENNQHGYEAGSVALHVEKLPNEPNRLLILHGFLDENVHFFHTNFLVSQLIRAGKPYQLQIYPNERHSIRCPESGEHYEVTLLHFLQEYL
# Experimental: as §1
# Sequence of Dipeptidyl peptidase 4 (P27487 whole entry): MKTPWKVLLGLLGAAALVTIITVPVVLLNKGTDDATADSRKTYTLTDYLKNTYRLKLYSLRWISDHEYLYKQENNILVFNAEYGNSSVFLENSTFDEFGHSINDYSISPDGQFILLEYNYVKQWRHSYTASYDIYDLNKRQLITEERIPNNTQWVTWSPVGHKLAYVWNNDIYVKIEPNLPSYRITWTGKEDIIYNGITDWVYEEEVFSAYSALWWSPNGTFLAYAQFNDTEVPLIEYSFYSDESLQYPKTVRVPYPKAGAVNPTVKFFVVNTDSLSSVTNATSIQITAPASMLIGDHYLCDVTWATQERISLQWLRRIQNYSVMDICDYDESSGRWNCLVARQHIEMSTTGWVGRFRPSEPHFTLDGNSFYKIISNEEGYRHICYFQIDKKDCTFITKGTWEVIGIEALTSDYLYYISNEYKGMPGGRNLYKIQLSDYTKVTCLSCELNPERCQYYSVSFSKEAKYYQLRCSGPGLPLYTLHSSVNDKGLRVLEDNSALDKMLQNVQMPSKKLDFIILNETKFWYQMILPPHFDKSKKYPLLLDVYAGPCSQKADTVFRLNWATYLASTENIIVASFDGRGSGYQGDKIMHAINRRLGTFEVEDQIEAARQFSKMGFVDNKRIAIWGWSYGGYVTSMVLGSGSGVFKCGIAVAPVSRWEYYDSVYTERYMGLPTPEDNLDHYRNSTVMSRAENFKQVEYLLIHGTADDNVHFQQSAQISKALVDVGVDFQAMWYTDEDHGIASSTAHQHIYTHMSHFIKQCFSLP
Compound,Ki [1] [nM],Ki [2] [nM],Ki [3] [nM]
"N[C@H]1CC(C(=O)N2CCn3c(nnc3C(F)(F)F)C2)=CC[C@@H]1c1cc(F)c(F)cc1F [(1S,6R)-3-{[3-(trifluoromethyl)-5H,6H,7H,8H-[1,2,4]triazolo[3,4-a]pyrazin-7-yl]carbonyl}-6-(2,4,5-trifluorophenyl)cyclohex-3-en-1-aminium; 2,2,2-trifluoroacetate]",1.3,> 30000,4000
"N[C@H]1CC(c2ccccc2)=CC[C@@H]1c1ccccc1Cl [(1S,6R)-6-(2-chlorophenyl)-3-phenylcyclohex-3-en-1-aminium; 2,2,2-trifluoroacetate]",< 140,–,–
